According to patent publication US8796456B2, “Naphthalene diimide compounds” (University College London, priority 2007, dated 2014):

Experiments:
telomeric G-quadruplex = assay type: binding, human; settings: for FRET-Q ΔTm(0.5 μM): telomeric G-quadruplex sequence, 0.5 μM compound, maximum error ± 1° C.
Protocol: (§1) 50 μL of annealed DNA and 50 μL of compound per well were put into 96-well plates and processed in a DNA Engine Opticon (MJ Research). […] The raw data were imported into Origin 7.0 (OriginLab Corp.) and the graphs smoothed using a 10-point running average and subsequently normalised. For the determination of the melting temperature, the first derivative of the smoothed melting curve was calculated.
(§2) The initial assessment of the DNA stabilisation ability of the compounds was done using FRET. Four different DNA sequences were used—a model for the human telomeric G-quadruplex, a self-complementary duplex DNA hairpin and two sequences that are present in the promoter region of the CKIT gene. A FRET competition experiment was also run in which affinity for the telomeric G-quadruplex sequence was evaluated in presence of increasing concentrations of duplex DNA. These experiments allowed us to assess the selectivity of the ligands between quadruplex and duplex DNA.

duplex DNA = experiment: FRET melting assay, duplex DNA; assay type: binding; settings: duplex sequence, 0.5 μM compound, maximum error ± 1° C.
Protocol: as §1, with “calculated. The difference between the melting temperature at 0.5 μM of the compound and the melting temperature for the blank (ΔTm(0.5 μM)) was used for comparison.” for “calculated.”

ckit1 G-quadruplex = experiment: FRET melting assay, ckit1 G-quadruplex; assay type: binding; settings: ckit1 G-quadruplex sequence, 0.5 μM compound, maximum error ± 1° C.
Protocol: as §1, §2

ckit2 G-quadruplex = experiment: FRET melting assay, ckit2 G-quadruplex; assay type: binding; settings: ckit2 G-quadruplex sequence, 0.5 μM compound, maximum error ± 1° C.
Protocol: as §1, §2

telomerase = experiment: Modified TRAP assay (telomerase inhibition); assay type: biochemical
HT-29 cells (colon) = experiment: SRB toxicity assay, HT-29; assay type: cell-based; settings: Homo sapiens, 96 h exposure, HT-29D
Protocol: (§3) Human cancer cell lines, breast (MCF7), lung (A549), colon (HT-29), gastric (HGC-27) and normal human lung fibroblast lines (WI-38) were purchased from American Type Cell Culture (ATCC). The GIST882 line was a gift from Dr Jonathan Fletcher. All cell lines except HGC27 and WI38 were maintained in Dulbecco's Modified Eagles Media containing 10% foetal bovine serum (Invitrogen, UK), […] hydrocortisone (Acros Chemicals, Loughborough, UK), 2 mM L-glutamine (Invitrogen, Netherlands), and non-essential amino-acids (Invitrogen, Netherlands), and incubated at 37° C., 5% CO2. The WI38 and HGC27 lines were maintained in minimum essential medium, prepared as above. All cell lines were routinely passaged at a ratio of 1:6.
(§4) Short-term growth inhibition was measured using the SRB assay as described previously. Briefly, cells were seeded (4000 cells/wells) into the wells of 96 well-plates in appropriate medium and incubated overnight to allow the cells to attach. Subsequently cells were exposed to freshly-made solutions of drugs and incubated for a further 96 h. Following this the cells were fixed with ice cold trichlo-acetic acid (TCA) (10%, w/v) for 30 min and stained with 0.4% SRB dissolved in 1% acetic acid for 15 min. All incubations were carried out at room temperature.

HGC-27 cells (gastric) = experiment: SRB toxicity assay, HGC-27; assay type: cell-based; settings: Homo sapiens, HGC-27, 96 h
Protocol: as §3, §4

GIST882 cells = experiment: SRB toxicity assay, GIST882; assay type: cell-based; settings: Homo sapiens, 96 h exposure
Protocol: as §3, §4

MCF7 cells = experiment: Senescence β-galactosidase staining in MCF7 cells; assay type: cell-based, human; settings: at 70 nM
Protocol: Senescence detection and quantification experiments were carried out using a commercially available kit (Senescence β-galactosidase staining kit, Cell Signalling Technology, MA, USA). 1×10^5 cells were seeded in a 35 mm well of a 6-well plate (Nunc, Denmark) in 2 ml of medium and compound to test. The cells were incubated for 24 hours. The medium was then removed and the cells were washed with PBS (1×2 ml). The cells were fixed by treating them with 1 ml of fixative solution (2% formaldehyde and 2% glutaraldehyde in PBS) for 15 minutes at RT. The fixative solution was then removed and the wells washed with PBS (2×2 ml). Freshly prepared staining solution (a mixture of 930 μL of 40 mM citric acid/sodium phosphate (pH 6.0), 0.15 M NaCl and 2 mM MgCl2, 10 μL of 500 mM potassium ferrocyanide, 10 μL of 500 mM potassium ferricyanide and 50 μL of 20 mg/ml 5-bromo-4-chloro-3-indolyl-μD-galactopyranoside in DMF) (1 ml) was added and the cells were incubated overnight. The senescent cells, detected by their blue pigmentation, were quantified under a light microscope.
Senescence phenotype was investigated in MCF7 cells treated for 1 week with sub-cytotoxic concentrations of a selection of compounds.

Structure (SMILES)	FRET-Q ΔTm(0.5 μM) (telomeric G-quadruplex) [°C]	FRET-d ΔTm(0.5 μM) (duplex DNA) [°C]	FRET-ckit1 ΔTm(0.5 μM) (ckit1 G-quadruplex) [°C]	FRET-ckit2 ΔTm(0.5 μM) (ckit2 G-quadruplex) [°C]	concentration required to increase the melting temperature by 35° C. (telomeric G-quadruplex; G-quadruplex DNA, FRET) [µM]	EC50 (telomerase) [nM]	IC50 (HT-29 cells (colon)) [nM]	IC50 (HGC-27 cells (gastric)) [nM]	IC50 (GIST882 cells) [nM]	Senescence (% of cells) after 1 week (MCF7) (MCF7 cells)
CN(C)CCN1C(=O)c2ccc3c4c(ccc(c24)C1=O)C(=O)N(CCN(C)C)C3=O [Compound 33, N,N′-bis(3-(dimethylamino)ethylamino)-1,4,5,8-naphthalenetetracarboxylic acid diimide, reference compound]	3.2	1	1.25	7.25	–	–	–	–	–	–
CN(C)c1ccc(Nc2c3ccc(NC(=O)CCN4CCCC4)cc3nc3cc(NC(=O)CCN4CCCC4)ccc23)cc1 [BRACO19]	–	–	–	–	2.5	–	–	–	–	–
CN(C)CCCNc1cc2c3c(ccc4c3c1C(=O)N(CCCN(C)C)C4=O)C(=O)N(CCCN(C)C)C2=O [Compound 13]	26.5	12.5	23.5	29	–	17000 ± 1100	–	–	–	–
CN(C)CCCN1C(=O)c2ccc3c4c(ccc(c24)C1=O)C(=O)N(CCCN(C)C)C3=O [Compound 32, reference compound]	5.2	2.7	2.5	7.75	–	–	–	–	–	–
CN(C)CCCNc1cc2c3c(c(NCCCN(C)C)cc4c3c1C(=O)N(CCCN(C)C)C4=O)C(=O)N(CCCN(C)C)C2=O [Compound 12]	33.2	4.5	29.75	36.5	–	25000 ± 2500	63	510	1300	35.0 ± 3 (at 70 nM) % of cells
